The values that follow come from patent US20110207726A1, “Inhibitors of Human Cathepsin L, Cathepsin B, and Cathepsin S” (The Trustees of the University of Pennsylvania, priority 2008, published 2011).

Common to all, as to assay type: biochemical
One assay concerns the target T1, Human spleen cathepsin S (Homo sapiens, UniProt P25774).
T1 construct: Human spleen cathepsin S (Calbiochem 219344, 40 ng/mL); purchased Calbiochem 219344; host or cells: human spleen
The assay can be described thus: Cathepsin S assay, IC50 determination. On the procedure:
(§1) Human spleen cathepsin S (Calbiochem 219344, 40 ng/mL) was assayed using 15 microM Z-Phe-Arg-AMC substrate. Human liver cathepsin B (Calbiochem 219362, 65 ng/mL) was assayed using 15 microM Z-Arg-Arg-AMC substrate (Bachem I-1135). All reactions were performed in 20 mM sodium acetate buffer containing 1 mM EDTA and 5 mM cysteine, pH 5.5.
(§2) Compounds were serially diluted in DMSO and transferred into a 96-well Corning 3686 assay microplate to give a 16-point two-fold serial dilution dose response ranging from 25 microM to 760 pM. Human liver cathepsin L (Calbiochem 219402) was activated by incubating with assay buffer for 30 min. Upon activation, cathepsin L (300 pM, 8.7 ng/mL) was incubated with 1 microM Z-Phe-Arg-AMC substrate (Sigma C9521) and test compound in […] of assay buffer for 1 hour at room temperature. Fluorescence of AMC released by enzyme-catalyzed hydrolysis of Z-Phe-Arg-AMC was read on a PerkinElmer Envision microplate reader (excitation 355 nm, emission 460 nm). Data were scaled using internal controls and fitted to a four-parameter logistic model (IDBS XLfit equation 205) to obtain IC50 values in triplicate.
(§3) Compound No. 1 was assayed for inhibition against papain and cathepsins B, G, K, S, and V. Papain from Carica papaya (Calbiochem 5125, 11 ng/mL), human cathepsin K (Calbiochem 342001, 35 ng/mL), human spleen cathepsin S (Calbiochem 219344, 40 ng/mL), and human cathepsin V (Calbiochem 219467, 39 ng/ml) were assayed using Z-Phe-Arg-AMC substrate at 20 μM, 20 μM, 15 μM, and 1 μM, respectively. Human liver cathepsin B (Calbiochem 219362, 65 ng/mL) was assayed using 15 μM Z-Arg-Arg-AMC substrate (Bachem I-1135). Human neutrophil cathepsin G (Calbiochem 219373, 4.2 μg/mL) was assayed using 15 μM Suc-Ala-Ala-Pro-Phe-AMC substrate (Sigma S9761). All reactions were performed in 20 mM sodium acetate buffer containing 5 mM cysteine and 1 mM EDTA, pH 5.5. Reaction progress was monitored using the Envision microplate reader. IC50 values were measured in triplicate.

In the next assay the target is T2, human liver cathepsin L (Homo sapiens, UniProt P07711).
T2 construct: 8.7 ng/mL human liver cathepsin L (Calbiochem 219402); purchased Calbiochem 219402; host or cells: human liver
T2 sequence (P07711 114-288 limits assumed): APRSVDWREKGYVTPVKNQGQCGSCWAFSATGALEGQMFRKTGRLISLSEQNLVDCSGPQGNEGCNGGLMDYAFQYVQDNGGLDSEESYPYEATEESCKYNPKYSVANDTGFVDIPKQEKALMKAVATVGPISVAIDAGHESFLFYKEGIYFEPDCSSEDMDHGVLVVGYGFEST
T2 sequence (P07711 292-333 limits assumed): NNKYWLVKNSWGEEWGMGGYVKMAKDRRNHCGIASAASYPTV
The assay can be described thus: Cathepsin L assay, IC50 determination. As for the experimental part: Assay buffer consisted of 20 mM sodium acetate, 1 mM ethylenediaminetetraacetic acid (EDTA) and 5 mM cysteine, pH 5.5. Cathepsin L was incubated in assay buffer for 30 minutes prior to dispensing into wells to allow for efficient reduction of the active site cysteine required for full enzymatic activity.
Upon activation, cathepsin L (300 pM, 8.7 ng/mL) was incubated with 1 microM Z-Phe-Arg-AMC substrate (Sigma C9521) and test compound in […] of assay buffer for 1 hour at room temperature.
All reactions were performed in 20 mM sodium acetate buffer containing 5 mM cysteine and 1 mM EDTA, pH 5.5. Reaction progress was monitored using the Envision microplate reader. IC50 values were measured in triplicate.

The target in a further assay is T3, Human liver cathepsin B (Homo sapiens, UniProt P07858).
T3 construct: Human liver cathepsin B (Calbiochem 219362, 65 ng/mL); purchased Calbiochem 219362; host or cells: human liver
The assay can be described thus: Cathepsin B assay, IC50 determination. As for the experimental part: as §1, §2, §3

Like-named read-outs stand apart in the source and are kept apart here. A value given as a limit tells only on which side of the number the result lay.

T1 sequence (P25774 115-331): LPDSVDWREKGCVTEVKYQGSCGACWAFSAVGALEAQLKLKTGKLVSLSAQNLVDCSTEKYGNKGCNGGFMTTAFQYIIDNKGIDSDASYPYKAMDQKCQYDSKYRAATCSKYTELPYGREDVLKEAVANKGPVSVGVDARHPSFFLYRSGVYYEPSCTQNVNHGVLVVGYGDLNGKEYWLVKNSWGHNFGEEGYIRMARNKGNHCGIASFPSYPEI

Regarding `CC(C)(C)OC(=O)N[C@@H](Cc1ccc(OCc2ccccc2)cc1)C(=O)NNC(=O)SCC(=O)Nc1ccccc1[N+](=O)[O-]` [Compound No. 38], the IC50 at Human spleen cathepsin S (Table 1, read-out: IC50 Cat S) was 2080 nM; on human liver cathepsin L (Table 1, read-out: IC50 Cat L), 590 nM; at Human liver cathepsin B (Table 1, read-out: IC50 Cat B), 2770 nM.

As to `CC(C)[C@H](NC(=O)OC(C)(C)C)C(=O)NNC(=O)SCC(=O)N1CCc2ccccc21` [Compound No. 23], the IC50 stood at 7240 nM on Human spleen cathepsin S (Table 1, read-out: IC50 Cat S); 450 nM on human liver cathepsin L (Table 1, read-out: IC50 Cat L); 440 nM at Human liver cathepsin B (Table 1, read-out: IC50 Cat B).

For `CCc1ccccc1NC(=O)CSC(=O)NNC(=O)[C@H](CC(C)C)NC(=O)OC(C)(C)C` [Compound No. 29], the IC50 at Human spleen cathepsin S (Table 1, read-out: IC50 Cat S) was 1650 nM; on human liver cathepsin L (Table 1, read-out: IC50 Cat L) it was 1090 nM; at Human liver cathepsin B (Table 1, read-out: IC50 Cat B), 2630 nM.

As to `CC(C)(C)OC(=O)N[C@@H](Cc1c[nH]c2ccccc12)C(=O)NNC(=O)SCC(=O)N1CCc2ccc(Br)cc2C1c1ccccc1` (stereo partly drawn) [Compound No. 13], the IC50 at Human spleen cathepsin S (Table 1, read-out: IC50 Cat S) is 2900 nM; on human liver cathepsin L (Table 1, read-out: IC50 Cat L), 1030 nM; at Human liver cathepsin B (Table 1, read-out: IC50 Cat B) it was greater than 25000 nM.

With `CCc1ccccc1NC(=O)CCC(=O)NNC(=O)[C@H](Cc1c[nH]c2ccccc12)NC(=O)OC(C)(C)C` [Compound No. 113], the IC50 at Human spleen cathepsin S (Tables 2-11, read-out: Cat S) is no less than 25000 nM; on human liver cathepsin L (Tables 2-11, read-out: Cat L), no less than 25000 nM; at Human liver cathepsin B (Tables 2-11, read-out: Cat B) it was no less than 25000 nM.

Consider `CC(C)(C)OC(=O)N[C@@H](COCc1ccccc1)C(=O)NNC(=O)SCC(=O)NCCc1ccc(Br)cc1` [Compound No. 52], for which the IC50 at Human spleen cathepsin S (Table 1, read-out: IC50 Cat S) is 910 nM; on human liver cathepsin L (Table 1, read-out: IC50 Cat L), 580 nM; at Human liver cathepsin B (Table 1, read-out: IC50 Cat B) it was greater than 25000 nM.

Consider `C[C@@H](CC(=O)NNC(=O)SCC(=O)N1CCCc2ccccc21)NC(=O)OC(C)(C)C` [Compound No. 75], for which the IC50 at Human spleen cathepsin S (Table 1, read-out: IC50 Cat S) is greater than 25000 nM; on human liver cathepsin L (Table 1, read-out: IC50 Cat L) it was greater than 25000 nM; at Human liver cathepsin B (Table 1, read-out: IC50 Cat B) it was greater than 25000 nM.

Consider `CC(C)(C)OC(=O)N[C@@H](Cc1c[nH]c2ccccc12)C(=O)N/N=C/c1ccc(Cl)cc1` [Compound No. 124], for which the IC50 at Human spleen cathepsin S (Tables 2-11, read-out: Cat S) is no less than 25000 nM; at human liver cathepsin L (Tables 2-11, read-out: Cat L), no less than 25000 nM; on Human liver cathepsin B (Tables 2-11, read-out: Cat B) it was no less than 25000 nM.

For `CC(C)(C)OC(=O)N[C@@H](COCc1ccccc1)CC(=O)NNC(=O)SCC(=O)N1CCCc2ccccc21` [Compound No. 83], the IC50 is 5950 nM on Human spleen cathepsin S (Table 1, read-out: IC50 Cat S); 2120 nM on human liver cathepsin L (Table 1, read-out: IC50 Cat L); greater than 25000 nM at Human liver cathepsin B (Table 1, read-out: IC50 Cat B).

`CCc1ccccc1NC(=O)CSC(=O)NNC(=O)[C@@H](C)CO[Si](C)(C)C(C)(C)C` [Compound No. 71]: the IC50 on Human spleen cathepsin S (Table 1, read-out: IC50 Cat S) is greater than 25000 nM; on human liver cathepsin L (Table 1, read-out: IC50 Cat L), greater than 25000 nM; at Human liver cathepsin B (Table 1, read-out: IC50 Cat B) it was greater than 25000 nM.

On to `CCOC(=O)c1cccc(NC(=O)CSC(=O)NNC(=O)[C@H](COCc2ccccc2)NC(=O)OC(C)(C)C)c1` [Compound No. 56], for which the IC50 at Human spleen cathepsin S (Table 1, read-out: IC50 Cat S) was 1640 nM; on human liver cathepsin L (Table 1, read-out: IC50 Cat L) it was 430 nM; at Human liver cathepsin B (Table 1, read-out: IC50 Cat B), greater than 25000 nM.

Regarding `CCc1ccccc1NC(=O)COC(=O)NNC(=O)[C@H](Cc1c[nH]c2ccccc12)NC(=O)OC(C)(C)C` [Compound No. 93], the IC50 at Human spleen cathepsin S (Tables 2-11, read-out: Cat S) is 62 nM; on human liver cathepsin L (Tables 2-11, read-out: Cat L) it was 11 nM; on Human liver cathepsin B (Tables 2-11, read-out: Cat B) it was no less than 25000 nM.

With `CSCC[C@H](NC(=O)OC(C)(C)C)C(=O)NNC(=O)SCC(=O)N1CCCc2ccccc21` [Compound No. 18], the IC50 is 630 nM on Human spleen cathepsin S (Table 1, read-out: IC50 Cat S); 1340 nM on human liver cathepsin L (Table 1, read-out: IC50 Cat L); 2210 nM on Human liver cathepsin B (Table 1, read-out: IC50 Cat B).

As to `CSCC[C@H](NC(=O)OC(C)(C)C)C(=O)NNC(=S)SCC(=O)N1CCc2ccccc21` [Compound No. 126], the IC50 on Human spleen cathepsin S (Tables 2-11, read-out: Cat S) was no less than 25000 nM; at human liver cathepsin L (Tables 2-11, read-out: Cat L), no less than 25000 nM; at Human liver cathepsin B (Tables 2-11, read-out: Cat B) it was no less than 25000 nM.

In the case of `CCc1ccccc1NC(=O)CSC(=O)NNC(=O)[C@H](CCC(=O)O)NC(=O)OC(C)(C)C` [Compound No. 27], the IC50 was greater than 25000 nM at Human spleen cathepsin S (Table 1, read-out: IC50 Cat S); no less than 25000 nM on human liver cathepsin L (Table 1, read-out: IC50 Cat L); greater than 25000 nM at Human liver cathepsin B (Table 1, read-out: IC50 Cat B).
